According to patent US20250326744A1, “PIPERAZINE DERIVATIVE OR SALT THEREOF, AND PHARMACEUTICAL COMPOSITION” (priority 2022, published 2025):
Where a name gives a salt, the structure may show the parent alone.

Tested on: mexB (EC) strain
Assay: Efflux ability inhibition effect on drug efflux pump MexB (Test Examples 1 and 3): proliferation (OD595) of mexB (EC) strain with EM or LVFX at 1/4 MIC, EC75
Format: cell-based, Escherichia coli
Settings: Table 51, Test Example 1, 16 to 20 hours culture, OD595; for EC75, mexB (EC) strain, EM: combined with EM at 1/4 MIC; for EC75, mexB (EC) strain, LVFX: combined with LVFX at 1/4 MIC
Protocol: The efflux ability inhibition effect of the test compound on the drug efflux pump was evaluated using the bacterial proliferative ability in the presence of EM or LVFX as an index.
EM is a macrolide antibacterial agent and is a drug that is discharged outside the bacteria by MexB and MexY LVFX is a quinolone antibacterial agent and is a drug that is discharged outside the bacteria by MexB and MexY In a case where the test compound has an efflux ability inhibitory ability against the drug efflux pump, the proliferation of bacteria is suppressed by the combined use of EM or LVFX and the test compound, as compared with the case where EM or LVFX is used alone.
A mutant strain (hereinafter, referred to as an “mexB (EC) strain”) obtained by transferring the genes of the main multidrug efflux system MexAB-OprM of Pseudomonas aeruginosa described in Nature, 2013, Vol. 500, pp. 102 to 106 as a plasmid into Escherichia coli strains in which the acrB and tolC genes of the multidrug efflux system AcrAB-TolC were deleted as described in Journal of Infection and Chemotherapy 2008, Vol. 14, pp. 23 to 29, and a gene transfer strain (hereinafter, referred to as an “mexY (EC) strain”) of another main multidrug efflux system MexXY-OprM of Pseudomonas aeruginosa were used for the evaluation of test compounds.
In the mexB (EC) strain, an expression level of MexB of the drug efflux pump is accelerated, and in the mexY (EC) strain, an expression level of MexY of the drug efflux pump is accelerated.
For culturing each Escherichia coli strain, a 96-well plate (amount of culture medium per well: 100 μL) was used and Luria-Bertani broth (LB) culture medium was used. The inoculation amount of the bacteria was set to 10^4 to 5 CFU/well.
The mexB (EC) strain and the mexY (EC) strain were cultured for 16 to 20 hours in a culture medium to which EM or LVFX and test compounds at various concentrations (0 to 800 μM) were added, and the proliferation of the bacterial strains was evaluated by optical turbidity at 595 nm (OD595). The concentration of the antibacterial agents (EM and LVFX) in the culture medium were each set to ¼ of the minimum inhibitory concentration (MIC) (hereinafter, referred to as ¼ MIC) of the single antibacterial agent.
The proliferation of bacteria in a case where the antibacterial agent was added at the concentration of ¼ MIC in a case where the test compound was not added was measured, and compared with the proliferation of bacteria in a case where the test compound was contained, and the lowest concentration of the test compound at which the proliferation was inhibited by 75% or more was defined as the drug efflux pump inhibitory ability of the test compound as 75% inhibitory effect concentration (EC75).
The drug efflux pump inhibitory ability of each test compound in a case of being used in combination with the antibacterial agent against the mexB (EC) strain and the mexY (EC) strain was evaluated as follows according to the value of EC75. • S: EC75≤[…] • A: 12.5 μM<EC75≤25 μM • B: 25 μM<EC75≤100 μM • C: […]
In the same manner as in Test Example 1, the efflux ability inhibition effect of the test compound on the drug efflux pump was evaluated using the bacterial proliferation ability in the presence of EM or LVFX as an index.

| Structure (SMILES) | EC75, mexB (EC) strain, EM | EC75, mexB (EC) strain, LVFX |
| --- | --- | --- |
| CCOc1cccc(/C=C/c2nnn[nH]2)c1CN1CCN(C(=O)[C@H](N)C2CCN(CCc3ccccc3)CC2)CC1 [Example 33, Hydrobromide of (R,E)-1-(4-(2-(2-(1H-tetrazol-5-yl)vinyl)-6-ethoxybenzyl)piperazin-1-yl)-2-amino-2-(1-phenethylpiperidin-4-yl) ethan-1-one] | B (25 μM<EC75≤100 μM) | B (25 μM<EC75≤100 μM) |
| N[C@@H](C(=O)N1CCN(Cc2cccc3cc[nH]c23)CC1)C1CCN(CCc2cc(Cl)ccc2-c2ccccc2)CC1 [Example 40, Hydrobromide of (R)-1-(4-((1H-indol-7-yl)methyl)piperazin-1-yl)-2-amino-2-(1-(2-(4-chloro-[1,1′-biphenyl]-2-yl)ethyl)piperidin-4-yl) ethan-1-one] | – | B (25 μM<EC75≤100 μM) |
| CCOc1cccc(F)c1CN1CCN(C(=O)[C@H](N)C2CCN(CCc3cc(Cl)ccc3-c3cccc(F)c3)CC2)CC1 [Example 60, Hydrobromide of (R)-2-amino-2-(1-(2-(4-chloro-3′-fluoro-[1,1′-biphenyl]-2-yl)ethyl)piperidin-4-yl)-1-(4-(2-ethoxy-6-fluorobenzyl)piperazin-1-yl)ethan-1-one] | A (12.5 μM<EC75≤25 μM) | – |
| CCOc1cccc(F)c1CN1CCN(C(=O)[C@H](N)C2CCN(CCc3ccccc3C(=O)OC)CC2)CC1 [Example 129, Hydrochloride of Methyl (R)-2-(2-(4-(1-amino-2-(4-(2-ethoxy-6-fluorobenzyl)piperazin-1-yl)-2-oxoethyl)piperidin-1-yl)ethyl)benzoate] | A (12.5 μM<EC75≤25 μM) | – |
| CCOc1cccc(F)c1CN1CCN(C(=O)[C@H](N)C2CCN(CCc3cccc(O)c3)CC2)CC1 [Example 130, Hydrochloride of (R)-2-amino-1-(4-(2-ethoxy-6-fluorobenzyl)piperazin-1-yl)-2-(1-(3-hydrophenethyl)piperidin-4-yl) ethan-1-one] | B (25 μM<EC75≤100 μM) | A (12.5 μM<EC75≤25 μM) |
| CCOc1cccc(F)c1CN1CCN(C(=O)[C@H](N)C2CCN(CCc3ccccc3N)CC2)CC1 [Example 146, Hydrobromide of (R)-2-amino-2-(1-(2-aminophenethyl)piperidin-4-yl)-1-(4-(2-ethoxy-6-fluorobenzyl)piperazin-1-yl) ethan-1-one] | A (12.5 μM<EC75≤25 μM) | – |
| CCOc1cccc(F)c1CN1CCN(C(=O)[C@H](N)C2CCN(CCc3cn(-c4ccccc4F)c4ccccc34)CC2)CC1 [Example 157, Hydrobromide of (R)-2-amino-1-(4-(2-ethoxy-6-fluorobenzyl)piperazin-1-yl)-2-(1-(2-(1-(2-fluorophenyl)-1H-indol-3-yl)ethyl)piperidin-4-yl)ethan-1-one] | A (12.5 μM<EC75≤25 μM) | A (12.5 μM<EC75≤25 μM) |
| CCOc1cccc(F)c1CN1CCN(C(=O)[C@H](N)C2CCN(CCc3nsc4ccccc34)CC2)CC1 [Example 160, Hydrobromide of (R)-2-amino-2-(1-(2-(benzo[d]isothiazol-3-yl)ethyl)piperidin-4-yl)-1-(4-(2-ethoxy-6-fluorobenzyl)piperazin-1-yl)ethan-1-one] | A (12.5 μM<EC75≤25 μM) | A (12.5 μM<EC75≤25 μM) |
| CN(C)c1ccccc1CN1CCN(C(=O)CN2CCN(CCc3ccccc3)CC2)CC1 [Example 224, Hydrochloride of 1-(4-(2-(dimethylamino)benzyl)piperazin-1-yl)-2-(4-phenethylpiperazin-1-yl)ethan-1-one] | – | A (12.5 μM<EC75≤25 μM) |
| N#Cc1ccccc1CN1CCN(C(=O)CN2CCN(CCc3ccccc3)CC2)CC1 [Example 234, Hydrochloride of 2-((4-(2-(4-phenethylpiperazin-1-yl)acetyl)piperazin-1-yl)methyl)benzonitrile] | – | B (25 μM<EC75≤100 μM) |
| O=C(CN1CCN(CCc2ccccc2)CC1)N1CCN(Cc2ccccc2[N+](=O)[O-])CC1 [Example 235, Hydrochloride of 1-(4-(2-nitrobenzyl)piperazin-1-yl)-2-(4-phenethylpiperazin-1-yl) ethan-1-one] | B (25 μM<EC75≤100 μM) | B (25 μM<EC75≤100 μM) |
| O=C(CN1CCN(CCc2ccccc2)CC1)N1CCN(Cc2sccc2Cl)CC1 [Example 251, Hydrochloride of 1-(4-((3-chlorothiophen-2-yl)methyl)piperazin-1-yl)-2-(4-phenethylpiperazin-1-yl)ethan-1-one] | A (12.5 μM<EC75≤25 μM) | B (25 μM<EC75≤100 μM) |
| O=C(CN1CCN(CCc2ccccc2)CC1)N1CCN(Cc2ccccc2F)CC1 [Example 259, hydrochloride of 1-(4-(2-fluorobenzyl)piperazin-1-yl)-2-(4-phenethylpiperazin-1-yl)ethan-1-one] | A (12.5 μM<EC75≤25 μM) | – |
| O=C(CN1CCN(CCc2ccccc2)CC1)N1CCN(Cc2ccccc2CO)CC1 [Example 262, Hydrochloride of 1-(4-(2-(hydroxymethyl)benzyl)piperazin-1-yl)-2-(4-phenethylpiperazin-1-yl)etban-1-one] | A (12.5 μM<EC75≤25 μM) | B (25 μM<EC75≤100 μM) |
| COCc1ccccc1CN1CCN(C(=O)CN2CCN(CCc3ccccc3)CC2)CC1 [Example 263, Hydrochloride of 1-(4-(2-(methoxymethyl)benzyl)piperazin-1-yl)-2-(4-phenethylpiperazin-1-yl)ethan-1-one] | A (12.5 μM<EC75≤25 μM) | A (12.5 μM<EC75≤25 μM) |
| COc1cccc(OCCN)c1CN1CCN(C(=O)CN2CCN(CCc3ccccc3)CC2)CC1 [Example 266, hydrochloride of 1-(4-(2-(2-aminoethoxy)-6-methoxybenzyl)piperazin-1-yl)-2-(4-phenethylpiperazin-1-yl)ethan-1-one] | – | B (25 μM<EC75≤100 μM) |
| COc1cccc(F)c1C(C)N1CCN(C(=O)CN2CCN(CCc3ccccc3)CC2)CC1.Cl (centres unmarked) [Example 269, hydrochloride of 1-(4-(1-(2-fluoro-6-methoxyphenyl)ethyl)piperazin-1-yl)-2-(4-phenethylpiperazin-1-yl)ethan-1-one] | A (12.5 μM<EC75≤25 μM) | A (12.5 μM<EC75≤25 μM) |
| COc1ccccc1CN1CCN(C(=O)CN2CCN(CCc3ccccn3)CC2)CC1 [Example 288, 1-(4-(2-Methoxybenzyl)piperazin-1-yl)-2-(4-(2-(pyridin-2-yl)ethyl)piperazin-1-yl)ethan-1-one and hydrochloride thereof] | B (25 μM<EC75≤100 μM) | B (25 μM<EC75≤100 μM) |
| COc1ccccc1CN1CCN(C(=O)CN2CCN(CCc3cncs3)CC2)CC1 [Example 294, 1-(4-(2-Methoxybenzyl)piperazin-1-yl)-2-(4-(2-(thiazol-5-yl)ethyl)piperazin-1-yl)ethan-1-one and hydrochloride thereof] | – | A (12.5 μM<EC75≤25 μM) |
| COc1ccccc1CN1CCN(C(=O)CC2CCN(CCc3ccccc3)CC2)CC1 [Example 304, hydrochloride of 1-(4-(2-methoxybenzyl)piperazin-1-yl)-2-(1-phenethylpiperidin-4-yl)ethan-1-one] | A (12.5 μM<EC75≤25 μM) | B (25 μM<EC75≤100 μM) |
| COc1ccccc1CN1CCN(C(=O)CN2CCC(CCc3ccccc3)(NC(C)=O)CC2)CC1 [Example 415, hydrochloride of N-(1-(2-(4-(2-methoxybenzyl)piperazin-1-yl)-2-oxoethyl)-4-phenethylpiperidin-4-yl)acetamide] | – | A (12.5 μM<EC75≤25 μM) |
